Laboratory results taken from publication PMC11409717, “Three separate pathways in Rhizobium leguminosarum maintain phosphatidylcholine biosynthesis, which is required for symbiotic nitrogen fixation with clover” (Applied and Environmental Microbiology, 2024).

Assays:
Pcs = biological target: T1, Pcs (Rhizobium redzepovicii, UniProt A0AAW8P1U5); assay: TLC of lipids from expressing E. coli cells, CuSO4 stain; format: cell-based; details: endogenous CDP-DAG, 30 °C, 20 h
T1 construct: pET28b (NdeI/XhoI), expressed in E. coli BL21 (DE3) cells, not purified
T1 sequence (A0AAW8P1U5 1-242): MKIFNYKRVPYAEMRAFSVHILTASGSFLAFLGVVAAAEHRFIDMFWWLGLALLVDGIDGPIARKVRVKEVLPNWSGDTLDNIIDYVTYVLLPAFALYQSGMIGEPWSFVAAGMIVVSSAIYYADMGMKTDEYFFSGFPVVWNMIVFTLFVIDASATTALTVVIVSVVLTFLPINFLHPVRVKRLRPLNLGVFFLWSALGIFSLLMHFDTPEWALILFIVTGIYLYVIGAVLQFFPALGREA

PmtS1 = biological target: T2, PmtS1 (Rhizobium leguminosarum, UniProt A0A2Z4YHW5); assay: in vitro methylation, lipid extraction and TLC with CuSO4 stain; format: biochemical; details: SAM; […] KH2PO4 pH […]; […] Triton X-100; […] °C, […] h; with or without PG or CL
T2 construct: gene DLJ82_3449; His-tagged, pET24b, E. coli BL21 (DE3), Ni-IDA and buffer exchange only (partly pure); 23-25 kDa
T2 sequence (A0A2Z4YHW5 1-223): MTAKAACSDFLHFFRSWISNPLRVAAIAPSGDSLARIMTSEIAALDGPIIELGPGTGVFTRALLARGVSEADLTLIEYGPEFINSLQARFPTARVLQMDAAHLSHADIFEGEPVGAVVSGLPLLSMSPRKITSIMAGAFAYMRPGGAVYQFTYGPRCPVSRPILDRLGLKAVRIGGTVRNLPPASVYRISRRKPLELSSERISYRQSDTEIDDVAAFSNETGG

PmtS2 = biological target: T3, PmtS2 (Rhizobium leguminosarum, UniProt A0A2Z4YJT5); assay: as above; format: biochemical; details: SAM; […] KH2PO4 pH […]; […] Triton X-100; […] °C, […] h; with or without PG or CL
T3 construct: gene DLJ82_3306; His-tagged, synthetic gene in pET28b, E. coli BL21 (DE3), Ni-IDA and SEC, one unknown co-purifying protein; 23-25 kDa
T3 sequence (A0A2Z4YJT5 1-199): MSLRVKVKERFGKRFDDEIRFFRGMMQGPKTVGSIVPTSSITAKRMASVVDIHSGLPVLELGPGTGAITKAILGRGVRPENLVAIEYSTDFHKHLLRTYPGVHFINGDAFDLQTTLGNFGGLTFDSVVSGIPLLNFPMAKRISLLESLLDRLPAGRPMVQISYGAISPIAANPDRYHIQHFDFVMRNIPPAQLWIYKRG

PmtR1 = biological target: T4, PmtR1 (Rhizobium leguminosarum, UniProt A0A2Z4YNE2); assay: as above; format: biochemical; details: SAM; […] KH2PO4 pH […]; […] Triton X-100; […] °C, […] h; with or without PG or CL
T4 construct: gene DLJ82_4359; His-tagged, pET24b, E. coli BL21 (DE3), Ni-IDA and SEC; 23-25 kDa
T4 sequence (A0A2Z4YNE2 1-217): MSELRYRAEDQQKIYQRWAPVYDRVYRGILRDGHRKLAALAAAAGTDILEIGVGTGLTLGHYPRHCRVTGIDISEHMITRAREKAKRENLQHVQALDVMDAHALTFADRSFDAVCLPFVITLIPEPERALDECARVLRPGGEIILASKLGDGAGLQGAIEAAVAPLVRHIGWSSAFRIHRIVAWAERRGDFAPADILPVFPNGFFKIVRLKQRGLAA

SMILES | in vitro methylation, lipid extraction and TLC with CuSO4 stain (PmtS2) | in vitro methylation, lipid extraction and TLC with CuSO4 stain (PmtR1) | further results
C[N+](C)(C)CCO [choline] | – | – | TLC of lipids from expressing E. coli cells, CuSO4 stain (Pcs; M9 minimal medium with 1 mM choline): PC formation was restored upon choline supplementation (Fig. 2B)
CCCCCCCC/C=C\CCCCCCCC(=O)OC[C@H](COP(=O)(O)OCCN)OC(=O)CCCCCCC/C=C\CCCCCCCC [PE, 1,2-dioleoyl-sn-glycero-3-phosphoethanolamine] | PE was methylated to MMPE and small amounts of DMPE and PC | – | in vitro methylation, lipid extraction and TLC with CuSO4 stain (PmtS1): the conversion of only PE to MMPE by the purified protein (Fig. 4A)
CCCCCCCC/C=C\CCCCCCCC(=O)OC[C@H](COP(=O)(O)OCCN(C)C)OC(=O)CCCCCCC/C=C\CCCCCCCC [DMPE, 1,2-dioleoyl-sn-glycero-3-phosphoethanolamine-N,N-dimethyl] | DMPE was methylated to PC, and this activity was stimulated by PG | DMPE proved to be the most efficiently used substrate for PmtR1 | –
CN(C)CCO [DMEA, 2-(dimethylamino)ethanol] | – | – | TLC of lipids from expressing E. coli cells, CuSO4 stain (Pcs; M9 minimal medium with 1 mM DMEA): effectively converting these methylated substrates into MMPE and DMPE (Fig. 2B)
CCCCCCCC/C=C\CCCCCCCC(=O)OC[C@H](COP(=O)(O)OCCNC)OC(=O)CCCCCCC/C=C\CCCCCCCC [MMPE, 1,2-dioleoyl-sn-glycero-3-phosphoethanolamine-N-methyl] | – | When MMPE was employed as a substrate, only barely detectable amounts of PC were synthesized | –
